Literature values, collected in patent US20070298098A1, “Controlled Release Compositions Comprising Levetiracetam” (ELAN PHARMA INTERNATIONAL LIMITED, priority 2005, published 2007).
“Also recorded” adds a separate entry of the source.

CC[C@@H](C(N)=O)N1CCCC1=O (single isomer, unassigned) [Levetiracetam]
plasma half-life (across studies): 6 to 8 h | linearity of pharmacokinetics (dose range of 500-5000 mg): linear | dependence of metabolism on liver cytochrome P450 (in vivo): not liver cytochrome P450 dependent | dose renally excreted unchanged (in vivo): 66% | major metabolic pathway (enzymatic hydrolysis of the acetamide group), share of dose (in vivo): 24 % of dose | time to steady state (multiple twice-daily dosing): 2 days | time of peak plasma concentrations (oral administration, fasted subjects): about an hour | decrease of Cmax by food (with food): 20% | delay of Tmax by food (with food): 1.5 h | effect of food on extent of bioavailability / absorption (with food): not affected by food; also recorded: Food does not affect the extent of absorption
